# Entries after “also recorded” stand apart in the source; their conditions may differ.
# Columns and labels:
# [1] = molecular target: T1, GalNAc-T2 (triple mutant, R438A-D444A-F447A) (Homo sapiens, UniProt Q10471, D444A/F447A/R438A); experiment: Transferase assay / Michaelis-Menten kinetics of GalNAc-T2 triple mutant; format: biochemical; conditions: for Vmax / Km: Triple Mutant (0.02 µM), pH 6.5 cacodylate, 37 °C, 0.25 mM UDP-[3H]-GalNAc, Michaelis-Menten fit, ± standard deviation; for Vmax: 10 mM MnCl2; for Catalytic efficiency (Vmax/Km): Triple Mutant, errors estimated from the largest percent error of Vmax or Km
# T1 construct: the previous reported template pPICZαAgalnact2 (K75-Q571); made in house; host or cells: Pichia pastoris SMD1168 (pPICZαA)
# Description: (§1) Specific activity determinations: GalNAc-T glycosylation reactions against (glyco)peptides 1–3 were performed with 75 mM sodium cacodylate, pH 6.5, 1 mM 2-mercaptoethanol, 10 mM MnCl2, 0.25 mM [^3H]-radiolabeled UDP-GalNAc (~6 × 10^8 DPM/µmole, American Radiolabeled Chemicals Inc.), and 1.4 mM (~1.25 mg/ml) of (glyco)peptide (from 4 mM stock in 1 mM TRIS, pH ~7) and varying concentrations (0.01 to 0.5 µM) of transferase (determined by OD280), giving a final reaction volumes of 20 µl in 100 µl capped Eppendorf tubes. Reactions were incubated at 37 °C in a thermostated microplate shaker (Taitec Microincubator M-36) and quenched at the appropriate reaction time by the addition of 20 µl of 250 mM EDTA and placed on ice prior to final workup. Typically, for each transferase, glycosylation reactions were performed at the same time with all three (glyco)peptide substrates (including a no peptide control) using the same batch of transferase and the same UDP-[^3H]-GalNAc stock. Before performing time course experiments, the relative activity of each transferase was determined by trial and error against all three peptides to determine the optimal transferase concentration or incubation time that gave no more than 10% peptide glycosylation against the best substrate. Final time course experiments typically consisted of incubation times of 10, 20, and 30, or 30, 60, and 90 or 120 min (depending on activity) and were performed at least twice. Most transferases were also characterized at two different enzyme concentrations (0.01–0.03 and 0.2–0.5 µM) and the results combined. After quenching the reaction and diluting to 4 ml, free UDP and non-hydrolyzed UDP-GalNAc were removed by passage over a Dowex 1 × 8 anion exchange resin (~3 ml column). Total UDP-[^3H]-GalNAc utilization (transfer to peptide substrate and transfer to water, i.e, hydrolysis) was determined by difference after scintillation counting (Beckman LS5801 scintillation counter) 1/20 of the sample before and after passage over Dowex 1 × 8. The extent of [^3H]-GalNAc transfer to peptide and the extent of hydrolysis was determined by Sephadex G10 gel filtration analysis, typically for the longest reaction time point, as previously described. Example gel filtration chromatograms are given in Supplementary Fig. 12. Significant hydrolysis was only observed for GalNAc-T4, which was corrected for in determining its specific activity. Specific activity was obtained by calculating at each individual data time point (of the combined time course plots, Fig. 4b), an individual-specific activity, which was then averaged to obtain the overall average specific activity (and standard deviation). Specific activity is reported as nmol of glycopeptide product formed per min, per pmol of enzyme. Substrate activity ratios (i.e., substrate ratios 2/1, 3/1, and 3/2) were also obtained at each individual time point and averaged (with standard deviation). […] Note that the Microsoft Excel least squares fitting function LINEST was used to obtain the linear plots shown in Fig. 4b while fixing the y intercept to zero. Note that the specific activity calculated from the least square slope differed slightly (less than 10%) from that determined from the average of the individual time points.
# (§2) Detailed enzyme kinetics on GalNAc-T4, GalNAc-T2, the GalNAc-T2 triple mutant and GalNAc-T2 chimera 3: Glycosylation reactions were performed as described above using a fixed enzyme concentration (0.06 µM for GalNAc-T4, and 0.02 µM for GalNAc-T2 and its linker constructs) with varying peptide concentrations (typically 45, 90, 180, 350, 700, 1400, and 2000 μM). Incubation times (10–90 min) were chosen such that no more than 30% of the UDP-GalNAc donor was depleted while typically giving less than 10% peptide glycosylation, after correction for UDP-GalNAc hydrolysis described above. Specific activities were obtained from one to two individual incubation time points performed in two–three separate experiments. […]
# [2] = molecular target: T2, GalNAc-T4 (Homo sapiens, UniProt Q8N4A0); experiment: Transferase assay / Michaelis-Menten kinetics of GalNAc-T4; format: biochemical; conditions: for Activity of GalNAc-T4 on peptide / glycosylation: over a range of peptide concentrations, in words; for Activity of GalNAc-T4 on peptide / glycosylation / Catalytic efficiency (Vmax/Km): GalNAc-T4
# T2 construct: amino acid residues 36–578 of the human GalNAc-T4; histidine tag (C); made in house; host or cells: Pichia pastoris SMD1168 (pPICZαA, secreted)
# Description: as §1, §2
# T2 sequence (Q8N4A0 36-578): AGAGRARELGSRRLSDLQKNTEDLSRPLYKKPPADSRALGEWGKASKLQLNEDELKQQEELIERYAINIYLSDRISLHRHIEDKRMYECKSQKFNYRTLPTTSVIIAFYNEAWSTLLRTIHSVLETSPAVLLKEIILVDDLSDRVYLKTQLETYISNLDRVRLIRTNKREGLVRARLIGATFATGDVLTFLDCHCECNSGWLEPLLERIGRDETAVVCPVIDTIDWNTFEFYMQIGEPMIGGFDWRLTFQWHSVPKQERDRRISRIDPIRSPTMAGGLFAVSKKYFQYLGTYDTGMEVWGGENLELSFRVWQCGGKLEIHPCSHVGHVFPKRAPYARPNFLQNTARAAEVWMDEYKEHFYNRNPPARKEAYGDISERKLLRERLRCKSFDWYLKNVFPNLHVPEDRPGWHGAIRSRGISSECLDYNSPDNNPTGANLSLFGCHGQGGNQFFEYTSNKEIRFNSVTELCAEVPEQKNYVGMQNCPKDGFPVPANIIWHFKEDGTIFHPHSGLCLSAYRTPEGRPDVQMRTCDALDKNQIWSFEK
# T1 sequence (Q10471 75-571 R438A/D444A/F447A): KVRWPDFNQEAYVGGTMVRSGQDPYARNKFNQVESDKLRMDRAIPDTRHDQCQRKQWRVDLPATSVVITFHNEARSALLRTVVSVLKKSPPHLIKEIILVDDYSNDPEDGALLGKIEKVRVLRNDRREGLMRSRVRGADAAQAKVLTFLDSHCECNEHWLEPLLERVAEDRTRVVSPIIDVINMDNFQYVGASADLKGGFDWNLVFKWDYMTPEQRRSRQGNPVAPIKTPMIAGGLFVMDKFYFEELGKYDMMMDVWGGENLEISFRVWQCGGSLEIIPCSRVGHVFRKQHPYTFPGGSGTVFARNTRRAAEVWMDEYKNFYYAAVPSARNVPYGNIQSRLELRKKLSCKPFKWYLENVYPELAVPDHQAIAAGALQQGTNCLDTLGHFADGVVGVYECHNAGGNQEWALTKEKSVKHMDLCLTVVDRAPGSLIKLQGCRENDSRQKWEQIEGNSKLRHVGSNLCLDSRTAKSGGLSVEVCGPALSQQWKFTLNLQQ
"change in kinetic parameters against monoglycopeptide 2 ([1]; triple mutant, in words)",Substance,Vmax [1],Km [1],Catalytic efficiency (Vmax/Km) [1],Activity of GalNAc-T4 on peptide / glycosylation [2],Catalytic efficiency (Vmax/Km) ([2]; Fig. 2a and text),"Km ([2]; Fig. 2a and text, GalNAc-T4 (0.06 µM), Michaelis-Menten fit)","Vmax ([2]; Supplementary Table 2, GalNAc-T4 (0.06 µM), pH 6.5 cacodylate, 37 °C, 0.25 mM UDP-[3H]-GalNAc, 10 mM MnCl2, corrected for UDP-GalNAc hydrolysis, ± standard deviation)","Km ([2]; Supplementary Table 2, GalNAc-T4 (0.06 µM), pH 6.5 cacodylate, 37 °C, 0.25 mM UDP-[3H]-GalNAc, ± standard deviation)","Catalytic efficiency (Vmax/Km) ([2]; Supplementary Table 2, errors estimated from the largest percent error of Vmax or Km)"
decrease in Vmax and increase in Km,"AGAGTTPGPGAGAT*GA [Peptide 2, monoglycopeptide …*GA, T* denotes the Thr-O-GalNAc moiety]",1.80 ± 0.06 mM/(nmole*min),400 ± 40 µM,4.54 ± 0.9 nmol/min,imperceptibly glycosylated; also recorded: too low to determine their kinetic constants; also recorded: largely unglycosylated,,,,,
,"GAT*GAGAGAGTTPGPG [Peptide 3, monoglycopeptide GAT*…, T* denotes the Thr-O-GalNAc moiety]",2.82 ± 0.10 mM/(nmole*min),570 ± 50 µM,4.94 ± 0.9 nmol/min,glycosylated selectively,~ 75 (nmole min)^−1,~40 µM,3.09± 0.25 mM/(nmole*min),41 ± 18 µM,75.2 ± 34 nmol/min
